Source: PubChem BioAssay AID330 (DTP/NCI, 2004)
Values joined by “and” are separate entries in the source; they are usually repeats but may differ in a detail not shown here. Equal values may be shown once. Toxic doses and inconclusive results are not listed. How the source made its calls: active means survival T/C of 150% or more; inactive means T/C below 125% in these data.

Test system: P388 leukemia ip, CD2F1 mice, survival T/C
Assay: NCI In Vivo Anticancer Drug Screen. Data for tumor model P388 Leukemia (intraperitoneal) in CD2F1 (CDF1) mice
Details: endpoint: median survival time, higher = longer survival
Method: The antitumor activity of compounds was measured in mice bearing transplantable tumors. Survival or tumor size were measured and the results are expressed as the measurement made in the treated group (T) divided by the measurement made in the vehicle treated control group (C). The tumor model used in this assay is P388 Leukemia (intraperitoneal) in CD2F1 (CDF1) mice

[1] = dose: 60.0 mg/kg/injection, schedule: Q01DX005 (ip), vehicle: saline
[2] = dose: 120.0 mg/kg/injection, schedule: Q01DX005 (ip), vehicle: saline
[3] = dose: 25.0 mg/kg/injection, schedule: Q01DX009 (ip), vehicle: saline with Tween-80
[4] = dose: 50.0 mg/kg/injection, schedule: Q01DX009 (ip), vehicle: saline with Tween-80
[5] = dose: 100.0 mg/kg/injection, schedule: Q01DX009 (ip), vehicle: saline with Tween-80
[6] = dose: 200.0 mg/kg/injection, schedule: Q01DX009 (ip), vehicle: saline with Tween-80
[7] = dose: 50.0 mg/kg/injection, schedule: Q01DX009 (ip), vehicle: saline
[8] = dose: 100.0 mg/kg/injection, schedule: Q01DX009 (ip), vehicle: saline
[9] = dose: 200.0 mg/kg/injection, schedule: Q01DX009 (ip), vehicle: saline
[10] = dose: 12.5 mg/kg/injection, schedule: Q01DX005 (ip), vehicle: Klucel (hydroxypropylcellulose) (HPC)
[11] = dose: 25.0 mg/kg/injection, schedule: Q01DX005 (ip), vehicle: Klucel (hydroxypropylcellulose) (HPC)
[12] = dose: 50.0 mg/kg/injection, schedule: Q01DX005 (ip), vehicle: Klucel (hydroxypropylcellulose) (HPC)
[13] = dose: 200.0 mg/kg/injection, schedule: Q01DX005 (ip), vehicle: Klucel (hydroxypropylcellulose) (HPC)
[14] = dose: 100.0 mg/kg/injection, schedule: Q01DX001 (ip), vehicle: Klucel (hydroxypropylcellulose) (HPC)
[15] = dose: 200.0 mg/kg/injection, schedule: Q01DX001 (ip), vehicle: Klucel (hydroxypropylcellulose) (HPC)
[16] = dose: 400.0 mg/kg/injection, schedule: Q01DX001 (ip), vehicle: Klucel (hydroxypropylcellulose) (HPC)
[17] = dose: 100.0 mg/kg/injection, schedule: Q01DX005 (ip), vehicle: Klucel (hydroxypropylcellulose) (HPC)
[18] = dose: 100.0 mg/kg/injection, schedule: Q04DX003 (ip), vehicle: Klucel (hydroxypropylcellulose) (HPC)
[19] = dose: 200.0 mg/kg/injection, schedule: Q04DX003 (ip), vehicle: Klucel (hydroxypropylcellulose) (HPC)
[20] = dose: 400.0 mg/kg/injection, schedule: Q04DX003 (ip), vehicle: Klucel (hydroxypropylcellulose) (HPC)

Measured: T/C

CC(C)N1CC(=O)N2CSCC2C1=O (stereo not drawn)
inactive: [1] 105 % of control | [2] 105 % of control | dose: 240.0 mg/kg/injection, schedule: Q01DX005 (ip), vehicle: saline 105 % of control

O=C(NCc1ccccc1)N1CCN(c2ccccc2)C1=O
inactive: [3] 103 % of control and 88 % of control | [4] 98 % of control and 89 % of control and 96 % of control | [5] 97 % of control | [6] 98 % of control and 89 % of control and 93 % of control

CC(C)CC(C)(c1ccc(O)cc1)c1ccc(O)cc1
inactive: [5] 105 % of control | [6] 105 % of control

CC(C)=CC(=O)OC1C2C(C)=CC(O)C(O)C2(C)C2C3(O)OCC24C(CC(=O)OC14)C(C)C3O (stereo not drawn)
active: dose: 0.75 mg/kg/injection, schedule: Q01DX009 (ip), vehicle: saline with Tween-80 160 % of control | dose: 1.0 mg/kg/injection, schedule: Q01DX005 (ip), vehicle: distilled water + Tween-80 154 % of control | dose: 2.0 mg/kg/injection, schedule: Q01DX005 (ip), vehicle: distilled water + Tween-80 154 % of control | dose: 4.0 mg/kg/injection, schedule: Q01DX005 (ip), vehicle: distilled water + Tween-80 163 % of control | dose: 5.0 mg/kg/injection, schedule: Q01DX005 (ip), vehicle: distilled water + Tween-80 153 % of control
inactive: dose: 0.31 mg/kg/injection, schedule: Q01DX005 (ip), vehicle: distilled water + Tween-80 123 % of control | dose: 6.0 mg/kg/injection, schedule: Q01DX009 (ip), vehicle: saline with Tween-80 109 % of control

CCOC(=O)C[n+]1ccc2c([nH]c3cc(OC)ccc32)c1C
inactive: [7] 97 % of control | [8] 112 % of control | [9] 110 % of control

O=C(NP1(=O)NCc2ccccc2CN1)OC1CCCC1
inactive: dose: 3.12 mg/kg/injection, schedule: Q01DX005 (ip), vehicle: Klucel (hydroxypropylcellulose) (HPC) 99 % of control and 92 % of control | dose: 6.25 mg/kg/injection, schedule: Q01DX005 (ip), vehicle: Klucel (hydroxypropylcellulose) (HPC) 101 % of control and 91 % of control | [10] 99 % of control and 104 % of control | [11] 92 % of control and 93 % of control and 98 % of control | [12] 91 % of control | [13] 88 % of control

CCc1nn2c(-c3cnns3)nnc2s1
inactive: [14] 99 % of control | [15] 104 % of control | [16] 99 % of control

[CH3][Ge]1([CH3])[CH2]C(c2ccccc2)C(c2ccccc2)[CH2]1 (stereo not drawn)
inactive: dose: 60.0 mg/kg/injection, schedule: Q01DX005 (ip), vehicle: Klucel (hydroxypropylcellulose) (HPC) 100 % of control | dose: 120.0 mg/kg/injection, schedule: Q01DX005 (ip), vehicle: Klucel (hydroxypropylcellulose) (HPC) 97 % of control | dose: 240.0 mg/kg/injection, schedule: Q01DX005 (ip), vehicle: Klucel (hydroxypropylcellulose) (HPC) 98 % of control

COc1cccc2c1C1c3ccccc3Sc3cccc(c31)O2 (stereo not drawn)
inactive: [11] 98 % of control | [12] 100 % of control | [17] 100 % of control | [13] 99 % of control

CN1CCCCC1CC(O)c1ccccc1 (stereo not drawn)
inactive: [10] 103 % of control | [11] 105 % of control | [12] 100 % of control

COc1ccc2c(=O)c(-c3ccc(OC)c(OC)c3OC)coc2c1
inactive: [18] 99 % of control | [19] 100 % of control | [20] 99 % of control

CN(C)CCOC(=O)Nc1ccccc1C(F)(F)F
inactive: dose: 60.0 mg/kg/injection, schedule: Q01DX005 (ip), vehicle: saline with Tween-80 99 % of control | dose: 120.0 mg/kg/injection, schedule: Q01DX005 (ip), vehicle: saline with Tween-80 95 % of control

C[CH2][Ge]([CH2]C)[CH2]C.C[CH2][Ge]([Cl])[CH2]C.C[CH2][Ge][CH2]C
inactive: [7] 104 % of control | [8] 103 % of control | [9] 103 % of control

CN(C)c1ccc(C2Sc3ccccc3S2)cc1
inactive: [14] 97 % of control | [15] 95 % of control | [16] 97 % of control

C=C1C(=O)OC2CC1C(O)C/C(C)=C/CC/C(C)=C/CCC2(C)O (stereo not drawn)
inactive: dose: 2.0 mg/kg/injection, schedule: Q01DX009 (ip), vehicle: Klucel (hydroxypropylcellulose) (HPC) 110 % of control | dose: 4.0 mg/kg/injection, schedule: Q01DX009 (ip), vehicle: Klucel (hydroxypropylcellulose) (HPC) 110 % of control | dose: 8.0 mg/kg/injection, schedule: Q01DX009 (ip), vehicle: Klucel (hydroxypropylcellulose) (HPC) 122 % of control and 92 % of control | dose: 16.0 mg/kg/injection, schedule: Q01DX009 (ip), vehicle: Klucel (hydroxypropylcellulose) (HPC) 105 % of control and 114 % of control | dose: 32.0 mg/kg/injection, schedule: Q01DX009 (ip), vehicle: Klucel (hydroxypropylcellulose) (HPC) 106 % of control and 107 % of control

c1ccc2c(c1)oc1c3c(ccc12)NCCC3
inactive: dose: 50.0 mg/kg/injection, schedule: Q01DX005 (ip), vehicle: saline with Tween-80 104 % of control | dose: 100.0 mg/kg/injection, schedule: Q01DX005 (ip), vehicle: saline with Tween-80 99 % of control | dose: 200.0 mg/kg/injection, schedule: Q01DX005 (ip), vehicle: saline with Tween-80 104 % of control

N#Cc1cc2ccncc2c2ccccc12
inactive: [3] 90 % of control | [4] 93 % of control and 95 % of control | [5] 98 % of control | [6] 106 % of control and 89 % of control | dose: 400.0 mg/kg/injection, schedule: Q01DX009 (ip), vehicle: saline with Tween-80 114 % of control

NC(=O)/C(N=Nc1ccccc1I)=N\Nc1ccccc1I
inactive: [12] 97 % of control | [17] 98 % of control | [13] 97 % of control

Oc1ccccc1/C=N\Nc1ccccc1
inactive: dose: 100.0 mg/kg/injection, schedule: Q01DX001 (ip), vehicle: other 113 % of control | dose: 200.0 mg/kg/injection, schedule: Q01DX001 (ip), vehicle: other 118 % of control | dose: 400.0 mg/kg/injection, schedule: Q01DX001 (ip), vehicle: other 100 % of control

Cc1ccc(C2c3c(c4ccccc4n3C(=O)c3ccccc3)C(=O)NN2C(=O)c2ccccc2)cc1 (stereo not drawn)
inactive: [12] 97 % of control | [17] 90 % of control | [13] 95 % of control

Cc1nn(-c2ccccc2)c2oc3ccc(Cl)cc3c(=O)c12
inactive: [1] 96 % of control | [2] 92 % of control

CC1(C#N)CCCC(c2ccccc2)(c2ccccc2)C1=O (stereo not drawn)
inactive: [18] 103 % of control | [19] 98 % of control | [20] 100 % of control

CC(C)(C)OC(=O)NC(Cc1ccccc1)C(=O)O (stereo not drawn)
inactive: dose: 6.25 mg/kg/injection, schedule: Q01DX009 (ip), vehicle: Klucel (hydroxypropylcellulose) (HPC) 101 % of control and 105 % of control | dose: 12.5 mg/kg/injection, schedule: Q01DX009 (ip), vehicle: Klucel (hydroxypropylcellulose) (HPC) 107 % of control | dose: 25.0 mg/kg/injection, schedule: Q01DX009 (ip), vehicle: Klucel (hydroxypropylcellulose) (HPC) 100 % of control and 88 % of control | dose: 50.0 mg/kg/injection, schedule: Q01DX009 (ip), vehicle: Klucel (hydroxypropylcellulose) (HPC) 111 % of control and 88 % of control | dose: 100.0 mg/kg/injection, schedule: Q01DX009 (ip), vehicle: Klucel (hydroxypropylcellulose) (HPC) 110 % of control and 97 % of control | dose: 200.0 mg/kg/injection, schedule: Q01DX009 (ip), vehicle: Klucel (hydroxypropylcellulose) (HPC) 107 % of control and 97 % of control

Nc1ncccc1OCc1ccccc1
inactive: [7] 100 % of control and 110 % of control | [8] 107 % of control and 116 % of control | [9] 113 % of control and 98 % of control | dose: 400.0 mg/kg/injection, schedule: Q01DX009 (ip), vehicle: saline 100 % of control and 95 % of control

N#CC12C3C4C5C3C1n1c(=O)n(-c3ccccc3)c(=O)n1C5C42 (stereo not drawn)
inactive: [18] 106 % of control | [19] 106 % of control | [20] 107 % of control

CC(=O)N=c1sccn1CC(=O)c1ccccc1
inactive: dose: 25.0 mg/kg/injection, schedule: Q04DX003 (ip), vehicle: Klucel (hydroxypropylcellulose) (HPC) 119 % of control | dose: 50.0 mg/kg/injection, schedule: Q04DX003 (ip), vehicle: Klucel (hydroxypropylcellulose) (HPC) 96 % of control | [14] 100 % of control | [15] 100 % of control | [16] 101 % of control

CCOC(=O)C(Cc1ccc(O)cc1)NS(=O)(=O)c1ccc(C)cc1 (stereo not drawn)
inactive: [4] 98 % of control | [5] 100 % of control | [6] 108 % of control

O=[N+]([O-])C(CO)(CO)CC(F)(F)F
inactive: dose: 6.25 mg/kg/injection, schedule: Q04DX003 (ip), vehicle: saline 100 % of control
